Test results taken from patent US20230124862A1, “BISMUTH THIOL COMPOUNDS AND COMPOSITIONS AND METHODS OF TREATING MICROBIAL CO-INFECTIONS” (Microbion Corporation, priority 2020, published 2023).
Values after ≈ are worked out from the molar mass of the structure shown. Read-outs that look alike come from different tables or passages of the source. Marks after values point to notes of the source that are not given here.

How the values were obtained:
Enterobacteriaceae [1] = assay: Broth microdilution MIC (Example 11); type: cell-based, E. coli, K. pneumoniae, Enterobacter cloacae
Escherichia coli [2] = assay: Broth microdilution MIC (Example 12); type: cell-based
Klebsiella pneumoniae = assay: Broth microdilution MIC (Example 12); type: cell-based
Pseudomonas aeruginosa [3] = assay: Broth microdilution MIC (Example 12); type: cell-based
Acinetobacter baumannii = assay: Broth microdilution MIC (Example 12); type: cell-based
[4] = test system: vancomycin-intermediate Staphylococcus aureus (VISA); assay: Broth microdilution MIC (Example 12); type: cell-based
Enterobacteriaceae [5] = conditions: E. coli (MMX 102), QC; cited from earlier work
[6] = test system: P. aeruginosa and A. baumannii; conditions: P. aeruginosa (MMX 103), QC; cited from earlier work
Escherichia coli [7] = conditions: E. coli ATCC 25922; CLSI established QC range; cited from earlier work
Pseudomonas aeruginosa [8] = conditions: P. aeruginosa ATCC 27853; CLSI established QC range; cited from earlier work
S. aureus ATCC 29213 [9] = conditions: CLSI established QC range; cited from earlier work
S. aureus ATCC 29213 [10] = assay: Broth microdilution MIC (Example 12), ATCC QC organism; conditions: ATCC QC organism (Table 102)
Candida krusei [11] = assay: Antifungal broth microdilution (Example 13); type: cell-based; conditions: C. krusei ATCC 6258, comparators, single value
Aspergillus spp. [12] = assay: Antifungal broth microdilution (Example 13); type: cell-based, A. niger, A. terreus, A. fumigatus, A. flavus
fungal pathogens = assay: Antifungal activity, NIH/NIAID sponsored study; type: cell-based; conditions: 100% endpoint
[13] = test system: C. parapsilosis ATCC 22019; assay: Antifungal broth microdilution (Example 13), QC organism; type: cell-based, Candida parapsilosis; conditions: comparators, single value
Candida krusei [14] = conditions: C. krusei ATCC 6258, CLSI established QC range, cited from earlier work
Aspergillus spp. [15] = conditions: cited from earlier work
[16] = test system: C. parapsilosis ATCC 22019; conditions: C. parapsilosis ATCC 22019, CLSI established QC range, cited from earlier work
E. coli ATCC 25922 = assay: MIC control strain; conditions: QC organism, Example 13
S. aureus ATCC 29213 [17] = assay: MIC control strain; conditions: QC organism, Example 13

C[C@H]1COc2c(N3CCN(C)CC3)c(F)cc3c(=O)c(C(=O)O)cn1c23 [LVX]
MIC (Enterobacteriaceae [1]; E. cloacae (MMX 5981), NDM-1, LVX-R, MEM-R, CAZ-R, GEN-R): 64 µg/mL (≈ 177 µM) | MIC (Enterobacteriaceae [1]; E. coli (MMX 102), QC): 0.015 µg/mL (≈ 0.0415 µM) | MIC (Enterobacteriaceae [1]; E. coli (MMX 5980), NDM-1, LVX-R, MEM-R, CAZ-R, GEN-R): 16 µg/mL (≈ 44.3 µM) | MIC (Enterobacteriaceae [1]; E. coli (MMX 8423), ESBL, LVX-R, CAZ-R, GEN-R): 16 µg/mL (≈ 44.3 µM) | MIC (Enterobacteriaceae [1]; E. coli (MMX 8424), ESBL, CAZ-R): 0.06 µg/mL (≈ 0.166 µM) | MIC (Enterobacteriaceae [1]; E. coli (MMX 8425), ESBL, LVX-R, CAZ-R, GEN-R): 16 µg/mL (≈ 44.3 µM) | MIC (Enterobacteriaceae [1]; K. pneumoniae (MMX 4622), KPC-2, MEM-R, CAZ-R): 1 µg/mL (≈ 2.77 µM) | MIC (Enterobacteriaceae [1]; K. pneumoniae (MMX 4623), KPC-2, MEM-R, CAZ-R, GEN-R): 1 µg/mL (≈ 2.77 µM) | MIC (Enterobacteriaceae [1]; K. pneumoniae (MMX 4653), KPC-3, LVX-R, MEM-R, CAZ-R): 64 µg/mL (≈ 177 µM) | MIC (Enterobacteriaceae [1]; K. pneumoniae (MMX 4683), KPC-2, LVX-R, MEM-R, CAZ-R): >64 µg/mL | MIC (Enterobacteriaceae [1]; K. pneumoniae (MMX 4684), ESBL, MEM-R): 0.03 µg/mL (≈ 0.083 µM) | MIC (Enterobacteriaceae [1]; K. pneumoniae (MMX 4685), ESBL, LVX-R, MEM-R, CAZ-R): 32 µg/mL (≈ 88.6 µM) | MIC (Enterobacteriaceae [1]; K. pneumoniae (MMX 4694), KPC-3, LVX-R, MEM-R, CAZ-R): 64 µg/mL (≈ 177 µM) | MIC (Enterobacteriaceae [1]; K. pneumoniae (MMX 5979), NDM-1, LVX-R, MEM-R, CAZ-R, GEN-R): >64 µg/mL | MIC (Escherichia coli [2]; E. coli ATCC 25922, ATCC QC organism (Table 102)): ≤0.008 µg/mL | MIC (Escherichia coli [2]; E. coli ATCC 35218, ATCC QC organism (Table 102)): ≤0.008 µg/mL | MIC (Escherichia coli [2]; E. coli ATCC 35218, ESBL): ≤0.008 µg/mL | MIC (Escherichia coli [2]; E. coli ATCC BAA-2471, NDM): >8 µg/mL | MIC (Escherichia coli [2]; E. coli CDC 114, ESBL/KPC): 4 µg/mL (≈ 11.1 µM) | MIC (Escherichia coli [2]; E. coli CDC 118, ESBL/NDM): 8 µg/mL (≈ 22.1 µM) | MIC (Escherichia coli [2]; E. coli CDC 435, NDM): >8 µg/mL | MIC (Escherichia coli [2]; E. coli CDC 451, KPC): >8 µg/mL | MIC (Escherichia coli [2]; E. coli CDC 503, ESBL/NDM): >8 µg/mL | MIC (Escherichia coli [2]; E. coli MMX 5745, KPC): 8 µg/mL (≈ 22.1 µM) | MIC (Escherichia coli [2]; E. coli MMX 5755, ESBL): 8 µg/mL (≈ 22.1 µM) | MIC (Escherichia coli [2]; E. coli MMX 5756, ESBL): 4 µg/mL (≈ 11.1 µM) | MIC (Escherichia coli [2]; E. coli MMX 5758, ESBL): 8 µg/mL (≈ 22.1 µM) | MIC (Klebsiella pneumoniae; K. pneumoniae ATCC BAA-1705, ATCC QC organism (Table 102)): >8 µg/mL | MIC (Klebsiella pneumoniae; K. pneumoniae ATCC BAA-1705, ESBL/KPC): >8 µg/mL | MIC (Klebsiella pneumoniae; K. pneumoniae CDC 112, KPC): 4 µg/mL (≈ 11.1 µM) | MIC (Klebsiella pneumoniae; K. pneumoniae CDC 113, ESBL/KPC): 4 µg/mL (≈ 11.1 µM) | MIC (Klebsiella pneumoniae; K. pneumoniae CDC 115, ESBL/KPC): >8 µg/mL | MIC (Klebsiella pneumoniae; K. pneumoniae CDC 120, ESBL/KPC): >8 µg/mL | MIC (Klebsiella pneumoniae; K. pneumoniae CDC 126, ESBL/KPC): 0.015 µg/mL (≈ 0.0415 µM) | MIC (Klebsiella pneumoniae; K. pneumoniae CDC 129, ESBL/KPC): >8 µg/mL | MIC (Klebsiella pneumoniae; K. pneumoniae CDC 135, ESBL/VIM): >8 µg/mL | MIC (Klebsiella pneumoniae; K. pneumoniae CDC 138, ESBL/NDM): >8 µg/mL | MIC (Klebsiella pneumoniae; K. pneumoniae CDC 158, ESBL/NDM/OXA): 4 µg/mL (≈ 11.1 µM) | MIC (Klebsiella pneumoniae; K. pneumoniae MMX 9029, ESBL): 0.12 µg/mL (≈ 0.332 µM) | MIC (Pseudomonas aeruginosa [3]; P. aeruginosa ATCC 27853, ATCC QC organism (Table 102)): 0.5 µg/mL (≈ 1.38 µM) | MIC (Pseudomonas aeruginosa [3]; P. aeruginosa CDC 230, VIM/OXA): 8 µg/mL (≈ 22.1 µM) | MIC (Pseudomonas aeruginosa [3]; P. aeruginosa CDC 231, KPC/OXA): >8 µg/mL | MIC (Pseudomonas aeruginosa [3]; P. aeruginosa CDC 241, IMP/OXA): 8 µg/mL (≈ 22.1 µM) | MIC (Pseudomonas aeruginosa [3]; P. aeruginosa CDC 246, NDM/OXA): >8 µg/mL | MIC (Pseudomonas aeruginosa [3]; P. aeruginosa CDC 250, NDM/OXA): >8 µg/mL | MIC (Pseudomonas aeruginosa [3]; P. aeruginosa CDC 356, KPC): 0.12 µg/mL (≈ 0.332 µM) | MIC (Pseudomonas aeruginosa [3]; P. aeruginosa CDC 439, IMP): 8 µg/mL (≈ 22.1 µM) | MIC (Pseudomonas aeruginosa [3]; P. aeruginosa CDC 444, VIM): 8 µg/mL (≈ 22.1 µM) | MIC (Pseudomonas aeruginosa [3]; P. aeruginosa CDC 457, VIM): >8 µg/mL | MIC (Pseudomonas aeruginosa [3]; P. aeruginosa CDC 516, KPC/AmpC): 0.25 µg/mL (≈ 0.692 µM) | MIC (Pseudomonas aeruginosa [3]; P. aeruginosa CDC 518, KPC/AmpC): >8 µg/mL | MIC (Acinetobacter baumannii; A. baumannii CDC 273, ESBL/OXA): >8 µg/mL | MIC (Acinetobacter baumannii; A. baumannii CDC 274, ESBL/OXA): 8 µg/mL (≈ 22.1 µM) | MIC (Acinetobacter baumannii; A. baumannii CDC 275, ESBL/OXA): 4 µg/mL (≈ 11.1 µM) | MIC (Acinetobacter baumannii; A. baumannii CDC 277, ESBL/OXA): 8 µg/mL (≈ 22.1 µM) | MIC (Acinetobacter baumannii; A. baumannii CDC 284, ESBL/OXA): 8 µg/mL (≈ 22.1 µM) | MIC (Acinetobacter baumannii; A. baumannii CDC 307, OXA): 8 µg/mL (≈ 22.1 µM) | MIC (Acinetobacter baumannii; A. baumannii CDC 308, ESBL/OXA): 4 µg/mL (≈ 11.1 µM) | MIC (Acinetobacter baumannii; A. baumannii CDC 311, OXA): 2 µg/mL (≈ 5.53 µM) | MIC (Acinetobacter baumannii; A. baumannii CDC 312, OXA): 2 µg/mL (≈ 5.53 µM) | MIC (Acinetobacter baumannii; A. baumannii CDC 313, ESBL/OXA): 2 µg/mL (≈ 5.53 µM) | MIC (Acinetobacter baumannii; A. baumannii NCTC 13304, OXA): 1 µg/mL (≈ 2.77 µM) | MIC ([4]; S. aureus NRS 1 (hVISA)): 4 µg/mL (≈ 11.1 µM) | MIC ([4]; S. aureus NRS 2): 4 µg/mL (≈ 11.1 µM) | MIC ([4]; S. aureus NRS 3): >8 µg/mL | MIC ([4]; S. aureus NRS 4): 4 µg/mL (≈ 11.1 µM) | MIC ([4]; S. aureus NRS 13): 0.12 µg/mL (≈ 0.332 µM) | MIC ([4]; S. aureus NRS 18): 4 µg/mL (≈ 11.1 µM) | MIC ([4]; S. aureus NRS 22): 8 µg/mL (≈ 22.1 µM) | MIC ([4]; S. aureus NRS 24 (hVISA)): >8 µg/mL | MIC ([4]; S. aureus NRS 27): 8 µg/mL (≈ 22.1 µM) | CLSI Quality Control Range (MIC) (Enterobacteriaceae [5]): (0.008-0.06)^a μg/mL | CLSI Quality Control Range (MIC) [6]: (0.5-4)^a | QC range of MIC (Escherichia coli [7]): (0.008-0.06) μg/mL | QC range of MIC (Pseudomonas aeruginosa [8]): (0.5-4) μg/mL | QC range of MIC (S. aureus ATCC 29213 [9]): (0.06-0.5) μg/mL | MIC (S. aureus ATCC 29213 [10]): 0.06 µg/mL (≈ 0.166 µM)

C[C@@H](c1ncncc1F)[C@](O)(Cn1cncn1)c1ccc(F)cc1F [Voriconazole]
MIC 24 hr (Candida krusei [11]; 24 hr): 0.12 µg/mL (≈ 0.344 µM) | MIC 48 hr (Candida krusei [11]; 48 hr): 0.5 µg/mL (≈ 1.43 µM) | MIC 24 hr (Aspergillus spp. [12]; A. flavus ATCC 204304): 0.12 µg/mL (≈ 0.344 µM) | MIC 48 hr (Aspergillus spp. [12]; A. flavus ATCC 204304): 2 µg/mL (≈ 5.73 µM) | MIC 24 hr (Aspergillus spp. [12]; A. fumigatus ATCC MYA-3626): 0.25 µg/mL (≈ 0.716 µM) | MIC 48 hr (Aspergillus spp. [12]; A. fumigatus ATCC MYA-3626): 0.5 µg/mL (≈ 1.43 µM) | MIC (fungal pathogens; Aspergillus fumigatus, read-out: Antifungal activity, MIC 100%, A. fumigatus AF1): 0.5 µg/mL (≈ 1.43 µM) | MIC (fungal pathogens; Aspergillus fumigatus, read-out: Antifungal activity, MIC 100%, A. fumigatus AF2): 4 µg/mL (≈ 11.5 µM) | MIC (fungal pathogens; Aspergillus fumigatus, read-out: Antifungal activity, MIC 100%, A. fumigatus AF3): 8 µg/mL (≈ 22.9 µM) | MIC (fungal pathogens; Blastomyces dermatitidis, read-out: Antifungal activity, MIC 100%, B. dermatitidis BD1): 0.125 µg/mL (≈ 0.358 µM) | MIC (fungal pathogens; Blastomyces dermatitidis, read-out: Antifungal activity, MIC 100%, B. dermatitidis BD2): ≤ 0.03 µg/mL | MIC (fungal pathogens; Blastomyces dermatitidis, read-out: Antifungal activity, MIC 100%, B. dermatitidis BD3): 0.06 µg/mL (≈ 0.172 µM) | MIC (fungal pathogens; Paecilomyces variotii, read-out: Antifungal activity, MIC 100%, P. variotii CLSI QC): 0.125 µg/mL (≈ 0.358 µM) | MIC 24 hr ([13]; 24 hr): 0.12 µg/mL (≈ 0.344 µM) | MIC 48 hr ([13]; 48 hr): 0.12 µg/mL (≈ 0.344 µM) | QC Range 24 hr (Candida krusei [14]; 24 hr): 0.06-0.5 | QC Range 48 hr (Candida krusei [14]; 48 hr): 0.12-1 | QC Range 48 hr (Aspergillus spp. [15]; A. flavus ATCC 204304, CLSI established QC range): 0.5-4 | QC Range 48 hr (Aspergillus spp. [15]; A. fumigatus ATCC MYA-3626, CLSI established QC range): 0.25-1 | QC Range 24 hr ([16]; 24 hr): 0.015-0.12 | QC Range 48 hr ([16]; 48 hr): 0.03-0.25 | MIC 24 hr (E. coli ATCC 25922): >64 | MIC 24 hr (S. aureus ATCC 29213 [17]): >64
